The values below come from patent publication US11925638B2, “Pharmaceutical composition comprising diamino heterocyclic carboxamide compound as active ingredient” (ASTELLAS PHARMA INC., priority 2014, dated 2024).

As usually defined, the IC50 is the concentration at which inhibition is half-maximal.

Assay [1] has as its system erlotinib-resistant HCC827 subcutaneous tumor. Nature of the assay: Anti-tumor evaluation (in vivo), erlotinib-resistant HCC827 subcutaneous cancer-bearing mouse model. Particulars: erlotinib 12.5 mg/kg/day and/or compound A 30 mg/kg/day, QD, po; for tumor volume on the starting day of administration: baseline, measured the day before start.
Source text: HCC827 cells (EGFR mutation-positive lung cancer cell line) were subcutaneously implanted to a dorsal part of an immunodeficient mouse (CB17/Icr-Prkdcscid/CrlCrlj, male, 4-week-old (Charles River Laboratories Japan, Inc.)) to prepare HCC827 subcutaneous cancer-bearing mice.
In assay [2] the test system is phosphorylated AXL in AXL/PC9 cells. The assay is described as follows: Western blot of phosphorylated AXL in AXL/PC9 cells. It is filed as cell-based, human. The note with it: compound A at 100 nM, phospho-AXL antibody. Background: In western blotting, separated proteins are transferred to a membrane and probed.
The test system of the next assay is PC9 vec. cells. The assay is described as follows: Proliferation inhibition (in vitro), PC9 vec. control cells, CellTiter-Glo. Particulars: Homo sapiens, 96 h, 4 days culture. It is filed as cell-based. A general note: ATP-based viability assays read luminescence as a measure of living cells.

Procedure for PC9 vec. cells: The obtained PC9/AXL cells and PC9 vec. cells were inoculated into a 384-well plate, respectively, using an RPMI 1640 medium (Sigma). On the same day, a DMSO solution of the test compound depending on the test concentration or DMSO alone was added thereto, followed by culturing at 37° C. for 4 days in the presence of 5% CO2. Thereafter, the number of cells was measured using a cell count reagent (CellTiter-Glo™ Luminescent Cell Viability Assay (Promega)).

As to `CCc1nc(C(N)=O)c(Nc2ccc(N3CCC(N4CCN(C)CC4)CC3)c(OC)c2)nc1NC1CCOCC1` [compound A, 6-ethyl-3-({3-methoxy-4-[4-(4-methylpiperazin-1-yl)piperidin-1-yl]phenyl}amino)-5-(tetrahydro-2H-pyran-4-ylamino)pyrazine-2-carboxamide], in assay [1], the “tumor volume on the starting day of administration” value is 339.2 mm^3, the tumor decreasing effect result is “did not show a tumor decreasing effect” and the “tumor volume after 12 days” value is 739.2 mm^3. Also, the AXL phosphorylation entry in assay [2] is reported as “completely inhibited”.

For `C#Cc1cccc(Nc2ncnc3cc(OCCOC)c(OCCOC)cc23)c1` [erlotinib, reference compound], half-maximal inhibition in the assay with PC9 vec. cells (IC50) required 108 nM. In addition, in assay [1], the “tumor volume on the starting day of administration” value was found to be 335.8 mm^3 and the tumor decreasing effect result is on record as “did not show a tumor decreasing effect”.
